We go through 43 molecules from US5019394A, “Liposome composition and its production” (Takeda Chemical Industries, Ltd., priority 1987, dated 1991).

Structures can show the parent of a compound that is named as a salt. Where only a bound is given, the exact number is not on record here.

One data set is described as follows: observed phase transition temperature of phospholipids. The note with it: phospholipid. The data set is classed as physicochemical.
As to `CCCCCCCCCCCCCC(=O)OC[C@H](COP(=O)([O-])OCC[N+](C)(C)C)OC(=O)CCCCCCCCCCCCC` [DMPC, dimyristoylphosphatidyl choline], the “observed phase transition temperature” value was determined as 23.9 °C.
As for `CCCCCCCCCCCCCC(=O)OCC(COP(=O)(O)OCCN)OC(=O)CCCCCCCCCCCCC` (centres unmarked) [DMPE, dimyristoylphosphatidyl ethanolamine], the “observed phase transition temperature” value was 50 °C.
For `CCCCCCCCCCCCCC(=O)OCC(COP(=O)(O)OCC(O)CO)OC(=O)CCCCCCCCCCCCC` (centres unmarked) [DMPG, dimyristoylphosphatidyl glycrine], the “observed phase transition temperature” value worked out at 23 °C.
For the molecule `CCCCCCCCCCCCCC(=O)OCC(COP(=O)(O)OCC(N)C(=O)O)OC(=O)CCCCCCCCCCCCC` (centres unmarked) [DMPS, dimyristoylphosphatidyl serine], the “observed phase transition temperature” value is 38 °C.
Regarding `CCCCCCCCCCCCCCCC(=O)OC[C@H](COP(=O)([O-])OCC[N+](C)(C)C)OC(=O)CCCCCCCCCCCCCCC` [DPPC, dipalmitoylphosphatidyl choline], the “observed phase transition temperature” value was 41.4 °C.
Turning to `CCCCCCCCCCCCCCCC(=O)OCC(COP(=O)(O)OCCN)OC(=O)CCCCCCCCCCCCCCC` (centres unmarked) [DPPE, dipalmitoylphosphatidyl ethanolamine], the “observed phase transition temperature” value stood at 60 °C.
With `CCCCCCCCCCCCCCCC(=O)OCC(COP(=O)(O)OCC(O)CO)OC(=O)CCCCCCCCCCCCCCC` (centres unmarked) [DPPG, dipalmitoylphosphatidyl glycerine], the “observed phase transition temperature” value is 41 °C.
Still for that read-out and setting: the value for `CCCCCCCCCCCCCCCC(=O)OCC(COP(=O)(O)OCC(N)C(=O)O)OC(=O)CCCCCCCCCCCCCCC` (centres unmarked) [DPPS, dipalmitoylphosphatidyl serine] was 51 °C; that for `CCCCCCCCCCCCCCCCCC(=O)OCC(COP(=O)([O-])OCC[N+](C)(C)C)OC(=O)CCCCCCCCCCCCCCCCC` (centres unmarked) [DSPC, distearoylphosphatidyl choline] was 54.9 °C.
`CCCCCCCCCCCCCCCCCC(=O)OCC(COP(=O)(O)OCCN)OC(=O)CCCCCCCCCCCCCCCCC` (centres unmarked) [DSPE, distearoylphosphatidyl ethanolamine]: the “observed phase transition temperature” value was “above 60 °C”.
With `CCCCCCCCCCCCCCCCCC(=O)OCC(COP(=O)(O)OCC(O)CO)OC(=O)CCCCCCCCCCCCCCCCC` (centres unmarked) [DSPG, distearoylphosphatidyl glycerine], the “observed phase transition temperature” value stood at 55 °C.
On the same count and under the same terms, the value for `CCCCCCCCCCCCCCCCCC(=O)OCC(COP(=O)(O)OCC(N)C(=O)O)OC(=O)CCCCCCCCCCCCCCCCC` (centres unmarked) [DSPS, distearoylphosphatidyl serine] was no less than 50 °C; that for `CCCCCCCCCCCCCCCC(=O)OC(COC(=O)CCCCCCCCCCCCC)COP(=O)([O-])OCC[N+](C)(C)C` (centres unmarked) [MPPC, myristoylpalmitoylphosphatidyl choline] was 35.3 °C; that for `CCCCCCCCCCCCCCCC(=O)OCC(COP(=O)([O-])OCC[N+](C)(C)C)OC(=O)CCCCCCCCCCCCC` (centres unmarked) [PMPC, palmitoylmyristoylphosphatidyl choline] was 27.2 °C.
Turning to `CCCCCCCCCCCCCCCCCC(=O)OC(COC(=O)CCCCCCCCCCCCCCC)COP(=O)([O-])OCC[N+](C)(C)C` (centres unmarked) [PSPC, palmitoylstearoylphosphatidyl choline], the “observed phase transition temperature” value turned out to be 47.4 °C.
With `CCCCCCCCCCCCCCCCCC(=O)OCC(COP(=O)([O-])OCC[N+](C)(C)C)OC(=O)CCCCCCCCCCCCCCC` (centres unmarked) [SPPC, stearoylpalmitoylphosphatidyl choline], the “observed phase transition temperature” value is 44.0 °C.
Take dipalmitoyl sphingomyelin [DPSM]: the “observed phase transition temperature” value stood at 41 °C.
As for distearoyl sphingomyelin [DSSM], the “observed phase transition temperature” value turned out to be 57 °C.

The nature of another data set: Krafft point of anionic surfactants.
Settings: not given
The data set is classed as physicochemical.
Turning to `CCCCCCCCCCCCCCCCCC(=O)N(C)CCS(=O)(=O)O.[Na]`, the Krafft point was 58 °C.
The molecule `CCCCCCCCCCCCS(=O)(=O)[O-].[Na+]` [sodium dodecanesulfonate] displayed a Krafft point of 38 °C.
On to `CCCCCCCCCCCCOS(=O)(=O)[O-].[Na+]` [sodium dodecyl sulfate, reference compound], for which the Krafft point stood at 9 °C.
Turning to `CCCCCCCCCCCCc1ccc(S(=O)(=O)O)cc1` [sodium dodecylbenzenesulfonate], the Krafft point was 40 °C.
`CCCCCCCCCCCCCCCCCS(=O)(=O)[O-].[Na+]` [sodium heptadecanesulfonate] showed a Krafft point of 62 °C.
`CCCCCCCCCCCCCCCCS(=O)(=O)[O-].[Na+]` [sodium hexadecanesulfonate] had a Krafft point of 57 °C.
On the same count and under the same terms, the same measure for `CCCCCCCCCCCCCCCCOS(=O)(=O)[O-].[Na+]` [sodium hexadecyl sulfate]: 43 °C; for `CCCCCCCCCCCCCCCCc1ccc(S(=O)(=O)O)cc1` [sodium hexadecylbenzenesulfonate]: 46 °C.
Molecule `CCCCCCCCCCCCCCCCCCS(=O)(=O)[O-].[Na+]` [sodium octadecanesulfonate] yielded a Krafft point of 70 °C.
`CCCCCCCCCCCCCCCCCCOCCOCCOS(=O)(=O)O` [sodium octadecyl diether sulfate ester] yielded a Krafft point of 40 °C.
In turn, `CCCCCCCCCCCCCCCCCCOS(=O)(=O)[O-].[Na+]` [sodium octadecyl sulfate] yielded a Krafft point of 58 °C.
As to `CCCCCCCCCCCCCCCCCCc1ccc(S(=O)(=O)O)cc1` [sodium octadecylbenzenesulfonate], the Krafft point was 56 °C.
As to `CCCCCCCCCCCCCCCCCCOCCOS(=O)(=O)O` [sodium octadecylether sulfate ester], the Krafft point was found to be 46 °C.
Take `CCCCCCCCCCCCCCCC(=O)NCCOS(=O)(=O)O` [sodium palmitoyl ethanolamide sulfate ester]: the Krafft point came to 42 °C.
The molecule `CCCCCCCCCCCCCCCC(=O)NCCCOS(=O)(=O)O` [sodium palmitoyl propanolamide sulfate ester] displayed a Krafft point of 47 °C.
Molecule `CCCCCCCCCCCCCCCC(=O)N(C)CCS(=O)(=O)O.[Na]` [sodium palmitoylmethyltaurine] showed a Krafft point of 43 °C.
Molecule `CCCCCCCCCCCCCCCC(=O)NCCS(=O)(=O)O.[Na]` [sodium palmitoyltaurine] yielded a Krafft point of 43 °C.
`CCCCCCCCCCCCCCCS(=O)(=O)[O-].[Na+]` [sodium pentadecanesulfonate] yielded a Krafft point of 48 °C.
`CCCCCCCCCCCCCCCCCC(=O)NCCOS(=O)(=O)O` [sodium stearoyl ethanolamide sulfate ester] displayed a Krafft point of 53 °C.
As to `CCCCCCCCCCCCCCCCCC(=O)NCCCOS(=O)(=O)O` [sodium stearoyl propanolamide sulfate ester], the Krafft point was determined as 57 °C.
`CCCCCCCCCCCCCCCCCC(=O)NCCS(=O)(=O)O.[Na]` [sodium stearoyltaurine] showed a Krafft point of 58 °C.
Same read-out and setting: the value for `CCCCCCCCCCCCCCS(=O)(=O)[O-].[Na+]` [sodium tetradecanesulfonate] was 48 °C; that for `CCCCCCCCCCCCCCc1ccc(S(=O)(=O)O)cc1` [sodium tetradecylbenzenesulfonate] was 43 °C; that for sodium hexadecyl disulfate ester was 39 °C.
sodium octadecyl disulfate ester displayed a Krafft point of 45 °C.

The nature of a further data set: dissolution of SMT in aqueous 6-CF solution. The class given is physicochemical. The note with it: 30 mg in 10 ml, pH 7, room temperature. The procedure: 270 mg of DPPC and 30 mg of DSPC were dissolved in 70 ml of 1:1 mixture of chloroform and isopropylether in a 1--1 beaker. To 10 ml of an aqueous solution of 6-carboxyfluorescein (6-CF), pH 7, which had been prepared beforehand so that the osmotic pressure might be the same as that of the physiological saline, 30 mg of sodium stearoylmethyltaurine (SMT) was added at room temperature. […] Then this solution was added to the solution of the phospholipid in an organic solvent, and emulsified by a probe type sonicator (Ohtake, Japan), to give a w/o type emulsion. Sonication at 50 watt for 30 seconds was repeated 10 times. This emulsion was charged to a rotary evaporator to evaporate off the organic solvent at 60° C. under reduced pressure, to give REV. The pressure in the evaporator was reduced greatly in the initial stage, but then adjusted in the course of evaporation of the organic solvent to prevent bumping. A small amount of the organic solvent remained in REV was further evaporated off by blowing nitrogen gas. […] The entrapment ratio of 6CF in this liposome composition was 33.2% as determined by quantification of 6-Cf entrapped in liposome (Note 1).
For `CCCCCCCCCCCCCCCCCC(=O)N(C)CCS(=O)(=O)O.[Na]`, the “solubility of SMT in aqueous 6-CF solution” value was “almost insoluble”.
